Literature values, collected in patent US12427126B2, “Niclosamide formulations and methods of use” (Florida State University Research Foundation, Inc., priority 2020, dated 2025).

Columns and labels:
[1] = administered orally

solubility: low solubility
systemic bioavailability [1]: low systemic bioavailability
Structure (SMILES): O=C(Nc1ccc([N+](=O)[O-])cc1Cl)c1cc(Cl)ccc1O [Niclosamide]
